Laboratory results as given in publication PMC6981274, “Structure and mechanism of a Type III CRISPR defence DNA nuclease activated by cyclic oligoadenylate” (Nature Communications, 2020).

Target: T1, Can1 (CRISPR ancillary nuclease 1; TTHB155) (Thermus thermophilus, UniProt Q53W14)
T1 construct: full length 636 aa plus C-terminal Leu-Glu; synthetic gene, E. coli C43 (DE3) (SeMet protein in B834), N-terminal His tag cut with TEV; monomer
T1 sequence (Q53W14 1-636): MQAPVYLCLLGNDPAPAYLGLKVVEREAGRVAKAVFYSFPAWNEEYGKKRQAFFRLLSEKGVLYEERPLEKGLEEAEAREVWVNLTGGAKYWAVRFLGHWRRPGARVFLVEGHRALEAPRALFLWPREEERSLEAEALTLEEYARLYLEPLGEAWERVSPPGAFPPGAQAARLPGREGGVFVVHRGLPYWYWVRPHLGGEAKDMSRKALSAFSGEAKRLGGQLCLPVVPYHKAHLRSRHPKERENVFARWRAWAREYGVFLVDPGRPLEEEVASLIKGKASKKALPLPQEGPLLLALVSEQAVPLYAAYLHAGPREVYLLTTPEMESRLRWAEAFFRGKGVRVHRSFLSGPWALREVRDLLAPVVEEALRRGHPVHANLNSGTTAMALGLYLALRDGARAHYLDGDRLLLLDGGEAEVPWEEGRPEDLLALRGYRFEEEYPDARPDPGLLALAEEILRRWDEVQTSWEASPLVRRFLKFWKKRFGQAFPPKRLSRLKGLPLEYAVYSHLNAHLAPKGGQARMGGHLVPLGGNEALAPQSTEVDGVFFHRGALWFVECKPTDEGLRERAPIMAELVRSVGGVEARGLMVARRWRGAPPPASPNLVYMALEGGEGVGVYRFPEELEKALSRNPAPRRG
Assay: X-ray crystal structure ([…] A); also EMSA with […]-labelled cA4, SAXS and nuclease activation
Assay type: binding
Settings: SeMet protein, 1:2 molar ratio with cA4, pH 6.5; site between the two CARF domains; activator

**Q.** How did the “X-ray crystal structure (1.83 A); also EMSA with 32P-labelled cA4, SAXS and nucl” value turn out when Nc1ncnc2c1ncn2[C@@H]1O[C@@H]2COP(=O)(O)O[C@H]3[C@@H](O)[C@H](n4cnc5c(N)ncnc54)O[C@@H]3COP(=O)(O)O[C@H]3[C@@H](O)[C@H](n4cnc5c(N)ncnc54)O[C@@H]3COP(=O)(O)O[C@H]3[C@@H](O)[C@H](n4cnc5c(N)ncnc54)O[C@@H]3COP(=O)(O)O[C@H]2[C@H]1O [cA4] was run?
**A.** The value was “A molecule of cA4 sits at the interface”.
